Converted amounts (≈) assume the structure as drawn. Read-outs that look alike come from different tables or passages of the source.
Tests used:
[1] = test system: Trichophyton mentagrophytes (11481); test: Broth dilution assay, F6; type: cell-based
Description: (§1) Both broth dilution and agar dilution assays were used to assess the antifungal activity of the compounds of the invention. The cultures were maintained in Sabouraud dextrose broth (SDB) and diluted with […]. 2.5 l of SDB was prepared and distributed into sterile vessels as follows: 49 ml into 1 vessel, 27 ml into 3 vessels, 45 ml into 2 vessels.
(§2) Five mg/ml concentration of each compound was prepared using DMSO as the solvent; warming and sonication were necessary to dissolve each compound completely. The compounds were then diluted in SDB according to the following protocol:
(§3) 5. 1 ug/ml--5 ml (3)+45 ml SDB
(§4) The compound at each concentration in SDB was then dispensed into 6 tubes each containing 4 ml […]. Controls (without any compound) were also prepared to insure that the solvent itself was not fungicidal or fungistatic.
(§5) Cultures were grown in SDB for 24 h at 30° C. C. albicans and C. neoformans were diluted 1:10 in SDB before inoculation. Inoculation volume for yeasts was 2 drops of diluted cells per tube. The fungal cultures were homogenized before inoculation. The same volume was added, but without dilution. All tubes were incubated at room temperature on a rotating wheel. After 16 h of incubation at room temperature, the fungistatic assay was set up on agar plates. […] Yeasts were inoculated onto SDA (the corresponding agar) plates and fungi onto mycosel agar plates. These plates were then incubated at room temperature.

Candida albicans (10231) = test: Broth dilution assay, F1; type: cell-based
Description: as §1, §2, §3, §4, §5

[2] = test system: Epidermophyton floccosum (15693); test: Broth dilution assay, F4; type: cell-based
Description: as §1, §2, §3, §4, §5

[3] = test system: Microsporum gypseum (14683); test: Broth dilution assay, F12; type: cell-based; conditions: Nannizzia gypsea
Description: as §1, §2, §3, §4, §5

Candida albicans (14053) = test: Broth dilution assay, F2; type: cell-based
Description: as §1, §2, §3, §4, §5

[4] = test system: Penicillium citrinum (9849); test: Broth dilution assay, F19; type: cell-based; conditions: for MIC: Table 1, F19, Sabouraud Dextrose Broth pH 5.5, read-out: Minimum Inhibitory Concentration (S, fungistatic)
Description: as §1, §2, §3, §4, §5

[5] = test system: Cryptococcus neoformans (13690); test: Broth dilution assay, F3; type: cell-based
Description: as §1, §2, §3, §4, §5

Candida species = conditions: with SMX, against Candida; Castaldo 1979; cited from earlier work
Candida = test: Growth of Candida cultures with compound and/or SMX (FIG. 1); type: cell-based; conditions: SMX alone (100 ug)
[6] = Table 1, F6, Sabouraud Dextrose Broth pH 5.5, read-out: Minimum Inhibitory Concentration (S, fungistatic)
[7] = Table 2, F6, Sabouraud Dextrose Broth pH 5.5, read-out: C Fungicidal
[8] = Table 2, F6, Sabouraud Dextrose Broth pH 5.5, read-out: S Fungistatic
[9] = pH 5.5, read-out: Minimum Lethal Concentration (C, fungicidal)
[10] = pH 5.5, read-out: Minimum Inhibitory Concentration (S, fungistatic)
[11] = pH 5.5, read-out: S Fungistatic
[12] = Table 1, F4, Sabouraud Dextrose Broth pH 5.5, read-out: Minimum Inhibitory Concentration (S, fungistatic)
[13] = Table 2, F4, Sabouraud Dextrose Broth pH 5.5, read-out: C Fungicidal
[14] = Table 2, F4, Sabouraud Dextrose Broth pH 5.5, read-out: S Fungistatic
[15] = Table 1, Sabouraud Dextrose Broth pH 5.5, read-out: Minimum Inhibitory Concentration (S, fungistatic)
[16] = Table 2, Sabouraud Dextrose Broth pH 5.5, read-out: C Fungicidal
[17] = Table 2, Sabouraud Dextrose Broth pH 5.5, read-out: S Fungistatic
[18] = Table 2, F1, Sabouraud Dextrose Broth pH 5.5, read-out: C Fungicidal
[19] = Table 2, F1, Sabouraud Dextrose Broth pH 5.5, read-out: S Fungistatic
[20] = Table 2, F3, Sabouraud Dextrose Broth pH 5.5, read-out: C Fungicidal
[21] = Table 2, F3, Sabouraud Dextrose Broth pH 5.5, read-out: S Fungistatic

Row | SMILES | MIC [1, 8] [µg/mL] | MIC [2, 14] [µg/mL] | MIC [3, 17] [µg/mL] | MIC (Candida albicans (10231); [19]) [µg/mL] | MIC [5, 21] [µg/mL] | MFC [1, 7] [µg/mL] | MFC [2, 13] [µg/mL] | MFC [3, 16] [µg/mL] | MFC (Candida albicans (10231); [18]) [µg/mL] | MFC [5, 20] [µg/mL] | other results
1 | Clc1ccc(COC(Cn2ccnc2)c2ccc(Cl)cc2Cl)c(Cl)c1 (stereo not drawn) [Miconazole, reference compound] | ≤ 0.3 | ≤ 0.3 | 1 (≈ 2.4 µM) | – | – | 10 (≈ 24 µM) | ≤ 0.3 | 30 (≈ 72.1 µM) | – | – | MIC [1, 6]: 1 µg/mL (≈ 2.4 µM); MFC [1, 9]: 30 µg/mL (≈ 72.1 µM); MFC (Candida albicans (10231); pH 5.5, read-out: C Fungicidal): 100 µg/mL (≈ 240 µM); MIC (Candida albicans (10231); [10]): 10 µg/mL (≈ 24 µM); MFC (Candida albicans (10231); [9]): 30 µg/mL (≈ 72.1 µM); MIC (Candida albicans (10231); [11]): 10 µg/mL (≈ 24 µM); MIC [2, 12]: ≤ 0.1 µg/mL; MFC [2, 9]: 1 µg/mL (≈ 2.4 µM); MIC [3, 15]: 3 µg/mL (≈ 7.21 µM); MIC (Candida albicans (14053); [10]): 30 µg/mL (≈ 72.1 µM); MFC (Candida albicans (14053); [9]): 30 µg/mL (≈ 72.1 µM); MIC [4]: ≤ 0.1 µg/mL; MFC [4, 9]: 30 µg/mL (≈ 72.1 µM); MFC ([5]; pH 5.5, read-out: C Fungicidal): 10 µg/mL (≈ 24 µM); MIC [5, 10]: ≤ 0.1 µg/mL; MFC [5, 9]: 10 µg/mL (≈ 24 µM); MIC [5, 11]: ≤ 0.3 µg/mL
2 | Nc1nc(N)c2c(ccc3c2ccn3CC2CC2)n1 [N-cyclopropylmethyl-5,6-pyrrolo-2,4-diaminoquinazoline] | – | – | – | – | – | – | – | – | – | – | synergistic activity in presence of sulfamethoxazole (SMX) (Candida species): synergistic activity
3 | CCCCCCCCCc1ccc2nc(N)nc(N)c2c1 [R^1 = H R^2 = CH2 (CH2)7 CH3] | > 100 | 30 (≈ 105 µM) | 100 (≈ 349 µM) | 100 (≈ 349 µM) | 3 (≈ 10.5 µM) | > 100 | ≤ 0.3 | > 100 | > 100 | > 30 | –
4 | Cc1cc(NS(=O)(=O)c2ccc(N)cc2)no1 [SMX, sulfamethoxazole, reference compound] | – | – | – | – | – | – | – | – | – | – | cfu/ml over a 36-h period (Candida): approximately 10^8 cfu/ml
5 | Cc1cccc(N(C)C(=S)Oc2ccc3ccccc3c2)c1 [Tolnaftate, reference compound] | ≤ 0.3 | ≤ 0.3 | ≤ 0.3 | > 100 | > 100 | > 100 | ≤ 0.3 | 30 (≈ 97.6 µM) | > 100 | > 100 | MIC [1, 6]: ≤ 0.1 µg/mL; MFC ([1]; Table 1, F6, Sabouraud Dextrose Broth pH 5.5, read-out: Minimum Lethal Concentration (C, fungicidal)): 3 µg/mL (≈ 9.76 µM); MIC (Candida albicans (10231); Table 1, F1, Sabouraud Dextrose Broth pH 5.5, read-out: Minimum Inhibitory Concentration (S, fungistatic)): > 100 µg/mL; MFC (Candida albicans (10231); Table 1, F1, Sabouraud Dextrose Broth pH 5.5, read-out: Minimum Lethal Concentration (C, fungicidal)): > 100 µg/mL; MIC [2, 12]: ≤ 0.1 µg/mL; MFC ([2]; Table 1, F4, Sabouraud Dextrose Broth pH 5.5, read-out: Minimum Lethal Concentration (C, fungicidal)): 10 µg/mL (≈ 32.5 µM); MIC [3, 15]: ≤ 0.1 µg/mL; MFC ([3]; Table 1, Sabouraud Dextrose Broth pH 5.5, read-out: Minimum Lethal Concentration (C, fungicidal)): 10 µg/mL (≈ 32.5 µM); MIC (Candida albicans (14053); Table 1, F2, Sabouraud Dextrose Broth pH 5.5, read-out: Minimum Inhibitory Concentration (S, fungistatic)): > 100 µg/mL; MFC (Candida albicans (14053); Table 1, F2, Sabouraud Dextrose Broth pH 5.5, read-out: Minimum Lethal Concentration (C, fungicidal)): > 100 µg/mL; MIC [4]: ≤ 0.3 µg/mL; MFC ([4]; Table 1, F19, Sabouraud Dextrose Broth pH 5.5, read-out: Minimum Lethal Concentration (C, fungicidal)): 30 µg/mL (≈ 97.6 µM); MIC ([5]; Table 1, F3, Sabouraud Dextrose Broth pH 5.5, read-out: Minimum Inhibitory Concentration (S, fungistatic)): > 100 µg/mL; MFC ([5]; Table 1, F3, Sabouraud Dextrose Broth pH 5.5, read-out: Minimum Lethal Concentration (C, fungicidal)): > 100 µg/mL

Continued, in another order:

Row | MIC [1, 8] [µg/mL] | MIC [2, 14] [µg/mL] | MIC [3, 17] [µg/mL] | MIC (Candida albicans (10231); [19]) [µg/mL] | MIC [5, 21] [µg/mL] | SMILES | MFC [1, 7] [µg/mL] | MFC [2, 13] [µg/mL] | MFC [3, 16] [µg/mL] | MFC (Candida albicans (10231); [18]) [µg/mL] | MFC [5, 20] [µg/mL] | other results
6 | 30 (≈ 110 µM) | 10 (≈ 36.7 µM) | 30 (≈ 110 µM) | 30 (≈ 110 µM) | 3 (≈ 11 µM) | CCCCCCCc1ccc2nc(N)nc(N)c2c1C [R^1 = CH3 R^2 = --CH2 (CH2)5 CH3, 2,4-Diamino-5-methyl-6-n-heptylquinazoline] | 30 (≈ 110 µM) | 30 (≈ 110 µM) | 100 (≈ 367 µM) | > 100 | 10 (≈ 36.7 µM) | –
7 | > 100 | – | 100 (≈ 318 µM) | 30 (≈ 95.4 µM) | 3 (≈ 9.54 µM) | CCCCCCCCCCc1ccc2nc(N)nc(N)c2c1C [R^1 = CH3 R^2 = --CH2 (CH2)8 CH3, 2,4-Diamino-5-methyl-6-n-decylquinazoline] | 30 (≈ 95.4 µM) | – | > 100 | > 100 | 30 (≈ 95.4 µM) | –
8 | 30 (≈ 108 µM) | 30 (≈ 108 µM) | 100 (≈ 359 µM) | 100 (≈ 359 µM) | 10 (≈ 35.9 µM) | Cc1c(CCc2ccccc2)ccc2nc(N)nc(N)c12 [R^1 = CH3 R^2 = --CH2 (CH2)C6 H5, 2,4-Diamino-5-methyl-6-phenethylquinazline] | 30 (≈ 108 µM) | 100 (≈ 359 µM) | > 100 | > 100 | 30 (≈ 108 µM) | –

Source: patent US4818753A, “Synthesis and method of use for 2, 4 diaminoquinazoline” (SRI International, priority 1987, dated 1989)
